Laboratory results from US20240368104A1, “Novel Dialkoxynaphtho[2,3-C]Furan-1(3H)-One Derivatives and Pharmaceutical Composition For Preventing or Treating Respiratory Disease or SARS-COV-2 Infection Disease, Comprising Same” (priority 2021, published 2024).
Where two headings read alike, the source gives them in different places.

How the values were obtained:
in vitro [1] = details: African green monkey
[2] = test system: SFTS virus (KADGH; NCCP43261); experiment: microbe, parasite or virus in culture; type: cell-based, severe fever with thrombocytopenia syndrome virus; parameters: SI (Selectivity Index, CC50/IC50): unit not given here; details: for IC50: Severe fever with thrombocytopenia syndrome virus, Vero, 24 h, read-out: SFTSV inhibition (IC50, μM)
SARS-COV-2 = experiment: microbe, parasite or virus in culture; type: cell-based; parameters: SI (Selectivity Index, CC50/IC50): unit not given here; details: for SI (Selectivity Index, CC50/IC50): SARS-COV-2, values >50 assumed to be 50; for IC50: read-out: SARS-COV-2 inhibition (IC50)
in vitro [3] = details: African green monkey; remark: listed apart in the source
[4] = test system: IL-4 secretion in mouse splenocytes; experiment: Inhibition of IL-4 secretion in mouse splenocytes (Concanavalin A, ELISA); type: cell-based, Balb/c mice; details: for inhibition at 1 µM: Splenocyte, read-out: IL-4 Secretion inhibitory ability (%); for IL-4 pg/ml: Concanavalin A 5 μg/mL, 48 hours
Experimental: (§1) The isolated splenocytes were diluted at a concentration of 5×10^6 cells/mL in RPMI medium containing 10% fetal bovine serum (FBS) and antibiotics (penicillin at 100 U/mL, streptomycin at 100 μg/mL), distributed at 500 μl/well in a 24 well plate, and cultured in a 37° C., 5% CO2 incubator for 48 hours. When splenocytes were distributed, an immune reaction was induced by treating with 5 μg/mL of Concanavalin A, and at this time, the splenocytes were treated with the materials selected in Experimental Example 3 at a concentration of 1 uM. First, in order to measure Th2 cytokines, the medium was collected from the 24-well plate, and only the supernatant was separated through centrifugation at 800×g for five minutes, after which 100 μl of the supernatant per well was used in an enzyme-linked immunosorbent assay (ELISA, Komabiotech) experiment so as to measure a degree of secretion of Th2 cytokines IL-4 and IL-5. A degree of inhibition against secretion of cytokines by the test material was calculated using [Equation 2] below, and the measurement results are shown in Table 7.

[5] = test system: IL-5 secretion in mouse splenocytes; experiment: Inhibition of IL-5 secretion in mouse splenocytes (Concanavalin A, ELISA); type: cell-based, Balb/c mice; details: for inhibition at 1 µM: Splenocyte, read-out: IL-5 Secretion inhibitory ability (%); for IL-5 pg/ml: Concanavalin A 5 μg/mL, 48 hours
Experimental: as §1

[6] = test system: IL-4 secretion in RBL-2H3 cells; experiment: Inhibition of IL-4 secretion in RBL-2H3 cell line (A23187 induced, ELISA); type: cell-based; details: Rattus norvegicus
Experimental: The RBL-2H3 cell line was purchased from the American Type Culture Collection (ATCC #CRL-2256). The cells were diluted at a concentration of 1×10^6 cells/ml in RPMI medium containing 15% fetal bovine serum (FBS) and antibiotics (penicillin at 100 U/mL, streptomycin at 100 μg/mL), distributed at 200 μl/well in a 48 well plate, and cultured in a 37° C., 5% CO2 incubator for 24 hours. In 24 hours later, the cells were pre-treated one hour before with a test drug and AS1517499 (STAT6 inhibitor) as a control drug, and treated with 1 uM of A23187 for six hours to induce an immune response, after which a group not containing the drug was used as a control. In order to measure a secretion level of cytokine IL-4, the medium was collected from the well plate and centrifuged at 125×g for five minutes to remove a residue, and 100 μl of the medium was used to measure an amount of IL-4 secreted from the cells by using IL-4 enzyme-linked immunosorbent assay (ELISA, Komabiotech). A degree of inhibition of cell secretion by the drug was calculated using [Equation 1] below.
First of all, 288 kinds of materials were treated at a single concentration of 10 uM so as to select 60 kinds of materials which inhibit secretion of IL-4 by 75% or more (FIG. 19).
After that, a repeated experiment and a two-concentration (10, 3 uM) test were performed using the selected 60 kinds of materials so as to select the final eight kinds, and the IC50 value was calculated and shown in Table 3.

[7] = test system: Balb/c mouse asthma model; experiment: Balb/c mouse asthma model (ovalbumin), BALF IgE, IL-4, IL-5 and inflammatory cells; type: in vivo, Balb/c mice
Experimental: In detail, five-week-old Balb/c mice were purchased and acclimated for one week, after which the mice were sensitized systemically by intraperitoneal injection with 0.1% ovalbumin (OVA 1 mg/mL, Al(OH)3 20 mg/mL) at 100 μl/mouse on days 0 and 14 from a week after the acclimation. From a week (day 21) after a final systemic sensitization, the compound of Example 73 was orally administered everyday at 10 mg/kg to mice for ten days, and dexamethasone was intraperitoneally administered at 1 mg/kg as a positive control group. In one hour later, 0.2% ovalbumin solution was sprayed with a nebulizer (PARIBoy SX, GmbH, Germany) so as to be inhaled for one hour. In five hours after the final sensitization (day 30), an autopsy was performed, and 1 mL of phosphate buffer solution was flowed through a tracheotomy to collect a bronchoalveolar lavage fluid (BALF). The collected BALF was centrifuged at 3000 rpm for ten minutes, and the supernatant was used to measure bioactive materials (IL-4, IL-5), and pellets were used to measure the number of inflammatory cells. In addition, an IgE concentration in the isolated BALF was measured using IgE enzyme-linked immunosorbent assay (ELISA, Komabiotech), and IL-4 and IL-5 were measured using their respective enzyme-linked immunosorbent assay (ELISA, IL-4: Enzo #ADI-900-043, IL-5: R&D system #M5000).
The results are shown in Table 8 and FIG. 22, and each secretion inhibitory activity was calculated in the same manner as in [Equation 2] of Experimental Example 4.
In addition, the BALF pellets were re-dissolved by adding 0.5 mL of phosphate buffer solution, and then 0.1 mL for each thereof was added to a 96-well plate and centrifuged at 800 rpm for five minutes to attach cells to the bottom (three wells per sample). Then, the cells were stained with Diff Quik staining solution (Sysmex) and the number of cells was measured with […].
The results were shown in FIG. 21, the SPSS program was used for statistical processing, the Levene test was performed for equal-variance test, and the significance test was performed through one-way ANOVA.

[8] = Severe acute respiratory syndrome coronavirus 2, Vero cells, 24 hours infection
[9] = mouse splenocytes, compound 1 μM
[10] = Severe acute respiratory syndrome coronavirus 2, Vero, 24 h
[11] = RBL-2H3, read-out: IL-4 secretion inhibition IC50 (μM)
[12] = RBL-2H3 cells, 1 uM A23187, read-out: IL-4 secretion inhibition IC50
[13] = Example 73 10 mg/kg oral, dexamethasone 1 mg/kg intraperitoneal
[14] = Mean ± S.D., n = 5, Example 73 10 mg/kg oral, dexamethasone 1 mg/kg intraperitoneal, ten days

Row | Structure (SMILES) | IC50 [2] | SI (Selectivity Index, CC50/IC50) (SARS-COV-2) | IC50 (SARS-COV-2; [8]) | CC50 (in vitro [3]) | IL-4 pg/ml [4, 9] | IL-5 pg/ml [5, 9] | inhibition at 1 µM [4, 9] | inhibition at 1 µM [5, 9] | IC50 [6, 12] | other results
1 | COc1cc2cc3c(c(-c4ccc(N(C)C5Cc6ccccc6C5)nc4)c2cc1OC)C(=O)OC3 [Example 194, 9-(6-((2,3-dihydro-1H-indan-2-yl)(methyl)amino)pyridin-3-yl)-6,7-dimethoxynaphtho[2,3-c]furan-1(3H)-one] | 0.965 µM | 33.63 | 1.49 µM | > 50 µM |  |  |  |  |  | CC50 at 24 h (in vitro [1]): 47100 µM; SI (Selectivity Index, CC50/IC50) ([2]; SFTS virus): 48785
2 | COc1cc2cc3c(c(-c4cnc(N(C)C5CCCC5)nc4)c2cc1OC)C(=O)OC3.Cl [Example 84, 9-(2-(cyclopentyl(methyl)amino)pyrimidin-5-yl)-6,7-dimethoxynaphtho[2,3-c]furan-1(3H)-one hydrochloride] |  | 237.53 |  | > 50 µM | 1.1 pg/mL | 11.2 pg/mL |  |  |  | inhibition at 1 µM ([4]; Mus musculus): 99.7%; inhibition at 1 µM ([5]; Mus musculus): 88%; IC50 (SARS-COV-2; [10]): 0.21 µM; IC50 [6, 11]: 5.23 µM
3 | CCCCN(C)c1ncc(-c2c3c(cc4cc(OC)c(OC)cc24)COC3=O)cn1.Cl [Example 76, 9-(2-(butyl(methyl)amino)pyrimidin-5-yl)-6,7-dimethoxynaphtho[2,3-c]furan-1(3H)-one hydrochloride] |  | 270.89 |  |  | 1.2 pg/mL | 13.4 pg/mL |  |  |  | inhibition at 1 µM ([4]; Mus musculus): 99.6%; inhibition at 1 µM ([5]; Mus musculus): 85.6%; IC50 [6, 11]: 4.05 µM
4 | COc1cc2cc3c(c(-c4cnc(N5CCSCC5)nc4)c2cc1OC)C(=O)OC3 [Example 63, 6,7-dimethoxy-9-(2-thiomorpholinopyrimidin-5-yl)naphtho[2,3-c]furan-1(3H)-one] |  | 23.56 | 2.12 µM | > 50 µM | 1.3 pg/mL | 17.2 pg/mL | 99.6% | 81.6% | 4.23 µM | 
5 | COc1cc2cc3c(c(-c4cnc(N(CC(C)C)CC(C)C)nc4)c2cc1OC)C(=O)OC3.Cl [Example 86, 9-(2-(diisobutylamino)pyrimidin-5-yl)-6,7-dimethoxynaphtho[2,3-c]furan-1(3H)-one hydrochloride] |  | 0.75 |  | 19.2 µM | 96.0 pg/mL | 71.0 pg/mL |  |  |  | inhibition at 1 µM ([4]; Mus musculus): 71.8%; inhibition at 1 µM ([5]; Mus musculus): 23.7%; IC50 (SARS-COV-2; [10]): 25.7 µM; IC50 [6, 11]: 2.21 µM
6 | COc1cc2cc3c(c(-c4cc5c(cc4OC(=O)c4ccccn4)OCO5)c2cc1OC)C(=O)OC3 [Example 169, 6-(6,7-dimethoxy-3-oxo-1,3-dihydronaphtho[2,3-c]furan-4-yl)benzo[d][1,3]dioxol-5-yl picolate] |  | 40.73 | 1.23 µM | > 50 µM | 46.7 pg/mL | 67.1 pg/mL | 86.3% | 27.9% | 2.34 µM | 
7 | NC(=O)c1ncn([C@@H]2O[C@H](CO)[C@@H](O)[C@H]2O)n1 [Ribavirin] | 64.8 µM |  |  |  |  |  |  |  |  | CC50 at 24 h (in vitro [1]): 1270 µM
8 | CCC(C)CN(C)c1ncc(-c2c3c(cc4cc(OC)c(OC)cc24)COC3=O)cn1 (centres unmarked) [Example 65, 6,7-dimethoxy-9-(2-(methyl(2-methylbutyl)amino)pyrimidin-5-yl)naphtho[2,3-c]furan-1(3H)-one] |  | 19.30 | 2.59 µM | > 50 µM | 1.5 pg/mL | 25.2 pg/mL | 99.5% | 73% | 2.18 µM | 
9 | CCN(CC)CCCC(C)Nc1ccnc2cc(Cl)ccc12 (centres unmarked) [Chloroquine] | 21.8 µM |  |  |  |  |  |  |  |  | CC50 (in vitro [1]): 104 µM
10 | C[C@@H]1C[C@H]2[C@@H]3CCC4=CC(=O)C=C[C@]4(C)[C@@]3(F)[C@@H](O)C[C@]2(C)[C@@]1(O)C(=O)CO [Dexamethasone, dexamethasone, reference compound] |  |  |  |  |  |  |  |  |  | BALF IL-4 Secretion inhibitory ability % [7, 13]: (102.7%); BALF IL-5 Secretion inhibitory ability % [7, 13]: (50.0%); BALF IgE Secretion inhibitory ability % [7, 13]: (93.0%); BALF IL-4 pg/ml [7, 14]: 32.9 ± 4.534 ^## pg/ml; BALF IL-5 pg/ml [7, 14]: 15.6 ± 8.07 pg/mL; BALF IgE ng/ml [7, 14]: 1.3 ± 0.536 ^## ng/ml
11 | COc1cc2cc3c(c(-c4cnc(N5CCCC(C)C5)nc4)c2cc1OC)C(=O)OC3 (centres unmarked) [Example 59, 6,7-dimethoxy-9-(2-(3-methylpiperidin-1-yl)pyrimidin-5-yl)naphtho[2,3-c]furan-1(3H)-one] |  | 20.79 | 2.4 µM | > 50 µM | 71.6 pg/mL | 51.9 pg/mL | 79% | 44.3% | 2.35 µM | 
12 | CCCCN(CCCC)c1ncc(-c2c3c(cc4cc(OC)c(OC)cc24)COC3=O)cn1 [Example 73, 9-(2-(dibutylamino)pyrimidin-5-yl)-6,7-dimethoxynaphtho[2,3-c]furan-1(3H)-one] |  | 6.53 | 7.66 µM | > 50 µM | 86.3 pg/mL | 74.1 pg/mL | 74.7% | 20.4% | 3.19 µM | number of eosinophils in BALF ([7]; 10 mg/kg oral, ten days): significantly reduced; BALF IL-4 Secretion inhibitory ability % [7, 13]: (51.3%); BALF IL-5 Secretion inhibitory ability % [7, 13]: (33.7%); BALF IgE Secretion inhibitory ability % [7, 13]: (24.3%); BALF IL-4 pg/ml [7, 14]: 64.9 ± 35.025 pg/mL; BALF IL-5 pg/ml [7, 14]: 20.7 ± 13.46 pg/mL; BALF IgE [7, 14]: 10.5 ± 3.282 ng/mL
13 | NC(=O)c1nc(F)c[nH]c1=O [Favipiravir] | 278 µM |  |  |  |  |  |  |  |  | 
